“And” between values parts separate entries of the source, which are not always exact repeats. Equal entries are not always repeated.
Legend:
mouse Mfsd2a [1] = biological target: T1, mouse Mfsd2a (Mus musculus, UniProt Q9DA75); test: Cell-based free fatty acid transport/uptake in Mfsd2a expressing HEK293 cells (mass spectrometry, TLC; Table 1); conditions: replicate columns; for Amount of each lipid species normalized to internal standard, mol percent in total phospholipid analysed / Amount of lipid species, mol percent in total phospholipid analysed: Mfsd2a expressing HEK293 cells
T1 construct: expressed in transfected cells; host or cells: HEK293
T1 sequence (Q9DA75 1-534): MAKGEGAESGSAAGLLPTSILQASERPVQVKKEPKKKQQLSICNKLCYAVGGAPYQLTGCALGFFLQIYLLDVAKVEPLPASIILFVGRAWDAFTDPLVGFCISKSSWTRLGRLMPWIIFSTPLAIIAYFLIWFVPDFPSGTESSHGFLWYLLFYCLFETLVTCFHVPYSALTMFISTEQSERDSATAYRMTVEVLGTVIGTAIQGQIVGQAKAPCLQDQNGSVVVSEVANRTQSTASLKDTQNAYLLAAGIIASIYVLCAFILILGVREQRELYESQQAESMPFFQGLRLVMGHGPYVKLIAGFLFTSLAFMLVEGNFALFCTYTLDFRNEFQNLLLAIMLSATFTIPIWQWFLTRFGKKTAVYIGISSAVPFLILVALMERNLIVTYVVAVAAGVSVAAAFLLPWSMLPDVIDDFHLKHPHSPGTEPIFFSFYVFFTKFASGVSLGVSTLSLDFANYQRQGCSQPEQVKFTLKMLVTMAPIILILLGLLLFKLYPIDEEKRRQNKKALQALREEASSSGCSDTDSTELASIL
Protocol: (§1) FIG. 12. […] Std: free [^14C]-DHA. b. TLC analysis of phospholipids and neutral lipids of HEK293 cells transfected with mouse Mfsd2a and mutants after overnight incubation with 100 μM [^14C]-oleate. TLC protocol used was described in Methods. PC: phosphatidylcholine, PE: phosphatidylethanolamine, TAG: triglyceride, CE: cholesteryl ester.
(§2) For tissue lipid analysis, brain, liver, and heart of female WT and KO mice with age of 7-8 weeks born to HET mothers, and brains from e18.5 embryos were collected and immediately frozen with liquid nitrogen until extraction. Lipid extraction was followed by chloroform/methanol method. For cell-based free fatty acid transport, lipids from HEK293 cells expressing mouse Mfsd2a and mock controls after overnight treatment with 100 μM docosahexaenoic, arachidonic, eicosapentaenoic, alpha-linolenic, linoleic, oleic, palmitic acids in BSA complex were extracted using HIP buffer (hexane:iso-propanol 3:2, per volume) and dried under N2 gas. Phospholipid species were measured by high performance liquid chromatography (HPLC) 1100 system (Agilent) coupled with an Triple Quadrupole/Ion Trap mass spectrometer (4000Qtrap, Applied Biosystem). Levels of individual phospholipid species were analyzed as described previously and quantified using spiked internal standards that includes PC-14:0/14:0, PE-14:0/14:0, PS-14:0/14:0 (Avanti Polar Lipids, Alabaster, Ala., USA), and dioctanoyl PI (Echelon Biosciences, Inc., Salt Lake City, Utah, USA).

mouse Mfsd2a [2] = test: as above; conditions: MS, replicate columns; for Amount of each lipid species normalized to internal standard, mol percent in total phospholipid analysed / Amount of lipid species, mol percent in total phospholipid analysed: mock HEK293 cells
Protocol: as §1, §2

[3] = 100 uM Docosahexaenoic acid/BSA complex overnight, MS
[4] = 100 uM Docosahexaenoic acid/BSA complex overnight
[5] = Mfsd2a expressing HEK293 cells incubated with 100 uM Eicosapentaenoic fatty acid/BSA complex overnight, MS
[6] = 100 uM Alpha-linolenic fatty acid/BSA complex overnight
[7] = 100 uM Linoleic fatty acid/BSA complex overnight, MS
[8] = 100 uM Oleic fatty acid/BSA complex overnight, MS
[9] = mock HEK293 cells incubated with 100 uM Eicosapentaenoic fatty acid/BSA complex overnight
[10] = 100 uM Linoleic fatty acid/BSA complex overnight
[11] = 100 uM Oleic fatty acid/BSA complex overnight
[12] = Mfsd2a expressing HEK293 cells incubated with 100 uM Arachidonic fatty acid/BSA complex overnight, MS
[13] = mock HEK293 cells incubated with 100 uM Arachidonic fatty acid/BSA complex overnight
[14] = 100 uM Eicosapentaenoic acid/BSA complex overnight, MS
[15] = 100 uM Eicosapentaenoic acid/BSA complex overnight

SMILES	Amount of each lipid species normalized to internal standard, mol percent in total phospholipid analysed (mouse Mfsd2a [1]; [3])	Amount of each lipid species normalized to internal standard, mol percent in total phospholipid analysed (mouse Mfsd2a [2]; [4])	Amount of each lipid species, mol percent in total phospholipid analysed (mouse Mfsd2a [1]; [5])	Amount of lipid species, mol percent in total phospholipid analysed (mouse Mfsd2a [1]; [6])	Amount of lipid species, mol percent in total phospholipid analysed (mouse Mfsd2a [1]; [7])	Amount of lipid species, mol percent in total phospholipid analysed (mouse Mfsd2a [1]; [8])	Amount of each lipid species, mol percent in total phospholipid analysed (mouse Mfsd2a [2]; [9])	Amount of lipid species, mol percent in total phospholipid analysed (mouse Mfsd2a [2]; [10])	Amount of lipid species, mol percent in total phospholipid analysed (mouse Mfsd2a [2]; [11])	Amount of each lipid species, mol percent in total phospholipid analysed (mouse Mfsd2a [1]; [12])	Amount of each lipid species, mol percent in total phospholipid analysed (mouse Mfsd2a [2]; [13])	Amount of lipid species, mol percent in total phospholipid analysed (mouse Mfsd2a [1]; [10])	Amount of each lipid species normalized to internal standard, mol percent in total phospholipid analysed (mouse Mfsd2a [1]; [14])	Amount of each lipid species normalized to internal standard, mol percent in total phospholipid analysed (mouse Mfsd2a [2]; [15])
CCCCCCCCCCCCCCCC(=O)OC[C@@H](O)COP(=O)(O)O[C@@H]1[C@H](O)[C@H](O)[C@@H](O)[C@H](O)[C@H]1O [LP116:0]	0.003896 mol percent and 0.00362 mol percent and 0.004663 mol percent and 0.002596 mol percent	0.003621 mol percent and 0.004425 mol percent and 0.003813 mol percent	–	–	–	–	–	–	–	–	–	–	–	–
CCCCCCCCCCCCCCCC(=O)OC[C@@H](O)COP(=O)(O)OC1[C@H](O)[C@H](O)C(O)[C@H](O)[C@H]1O (stereo partly shown) [LPI16:0]	–	–	0.00427 mol percent and 0.002996 mol percent and 0.00331 mol percent and 0.004891 mol percent	0.002614 mol percent and 0.002235 mol percent and 0.003861 mol percent and 0.003103 mol percent	0.002421 mol percent and 0.002583 mol percent and 0.004097 mol percent and 0.003665 mol percent	0.003305 mol percent and 0.002531 mol percent and 0.002415 mol percent and 0.003238 mol percent	0.004685 mol percent and 0.004731 mol percent and 0.003589 mol percent	0.003029 mol percent and 0.004291 mol percent and 0.00407 mol percent	0.003369 mol percent and 0.003584 mol percent and 0.002627 mol percent	–	–	–	–	–
CCCCCCCCCCCCCCCCCC(=O)OC[C@@H](O)COP(=O)(O)O[C@@H]1[C@H](O)[C@H](O)[C@@H](O)[C@H](O)[C@H]1O [LPI18:0]	0.03395 mol percent and 0.02821 mol percent and 0.03136 mol percent and 0.02514 mol percent	0.0354 mol percent and 0.03721 mol percent and 0.03756 mol percent	0.02916 mol percent and 0.03081 mol percent and 0.03115 mol percent and 0.03571 mol percent	0.03202 mol percent and 0.03143 mol percent and 0.03738 mol percent and 0.03614 mol percent	0.03216 mol percent and 0.02682 mol percent and 0.02809 mol percent and 0.04343 mol percent	0.02837 mol percent and 0.02931 mol percent and 0.02721 mol percent and 0.02894 mol percent	0.03631 mol percent and 0.04031 mol percent and 0.03846 mol percent	0.03365 mol percent and 0.03811 mol percent and 0.02692 mol percent	0.02649 mol percent and 0.03117 mol percent and 0.0307 mol percent	0.02508 mol percent and 0.03053 mol percent and 0.02667 mol percent and 0.03031 mol percent	0.03307 mol percent and 0.03421 mol percent and 0.02228 mol percent	–	–	–
CCCCCCCCCCCCCCCC(=O)OC[C@@H](O)COP(=O)(O)OC1[C@H](O)[C@H](O)C(O)[C@H](O)[C@H]1O (stereo partly shown) [LPI 16:0]	–	–	–	–	–	–	–	–	–	0.003583 mol percent and 0.003359 mol percent and 0.003156 mol percent and 0.002319 mol percent	0.003611 mol percent and 0.003895 mol percent and 0.00338 mol percent	–	–	–
CCCCCCCCCCCCCC/C=C\OC[C@@H](O)COP(=O)(O)OCCN [Lyso PE16:0p]	3.182 mol percent and 3.1158 mol percent and 3.231 mol percent and 3.697 mol percent	2.843 mol percent and 2.772 mol percent and 2.42 mol percent	–	3.296 mol percent and 3.844 mol percent and 2.809 mol percent and 2.876 mol percent	–	2.254 mol percent and 2.591 mol percent and 2.664 mol percent and 2.476 mol percent	–	–	3.062 mol percent and 2.456 mol percent and 2.052 mol percent	–	–	1.997 mol percent and 3.121 mol percent and 2.462 mol percent and 2.098 mol percent	2.495 mol percent and 3.134 mol percent and 3.766 mol percent and 2.379 mol percent	3.984 mol percent and 3.09 mol percent and 2.343 mol percent
CCCCCCCCCCCCCCCC/C=C\OC[C@@H](O)COP(=O)(O)OCCN [Lyso PE18:0p]	0.3998 mol percent and 0.8078 mol percent and 0.4971 mol percent and 0.5526 mol percent	0.3791 mol percent and 0.5478 mol percent and 0.5875 mol percent	–	0.5329 mol percent and 0.4653 mol percent and 0.37 mol percent and 0.5715 mol percent	–	0.4754 mol percent and 0.4091 mol percent and 0.4604 mol percent and 0.341 mol percent	–	–	0.336 mol percent and 0.5628 mol percent and 0.5097 mol percent	–	–	0.3438 mol percent and 0.3054 mol percent and 0.2525 mol percent and 0.1986 mol percent	0.4834 mol percent and 0.7431 mol percent and 0.4828 mol percent and 0.4728 mol percent	0.7711 mol percent and 0.3952 mol percent and 0.4625 mol percent
CCCCCCCCCCCCCCCCCC/C=C\OC[C@@H](O)COP(=O)(O)OCCN [Lyso PE20:0p]	0.1999 mol percent and 0.2885 mol percent and 0.2131 mol percent and 0.1906 mol percent	0.1737 mol percent and 0.2656 mol percent and 0.1958 mol percent	–	0.4144 mol percent and 0.2832 mol percent and 0.3195 mol percent and 0.1905 mol percent	–	0.184 mol percent and 0.3068 mol percent and 0.1973 mol percent and 0.2871 mol percent	–	–	0.1867 mol percent and 0.2217 mol percent and 0.228 mol percent	–	–	0.1851 mol percent and 0.2714 mol percent and 0.2999 mol percent and 0.1862 mol percent	0.1715 mol percent and 0.2585 mol percent and 0.309 mol percent and 0.2898 mol percent	0.4498 mol percent and 0.1976 mol percent and 0.1696 mol percent

Reference: patent US10175256B2, “Compositions and methods utilizing lysophosphatidylcholine scaffolds” (National University Of Singapore, priority 2013, dated 2019)
